Assays:
Format in all cases: cell-based
Microsporum canis = assay: Antifungal activity in vitro, resazurin growth inhibition screen: Microsporum canis; conditions: Microsporum canis B68128
Experimental: (§1) The standard susceptibility screen was performed in 96-well plates (U-bottom, Greiner Bio-One). Serial dilutions (2-fold or 4-fold) of 20 mM compound stock solutions were made in 100% DMSO, followed by an intermediate dilution step in water. These serial dilutions (10 μl) were then spotted onto test-plates that could be stored in the dark at 4° C. for a maximum period of 2 weeks. An adequate broad dose-range was included with 64 μM as the highest in-test concentration. […] The different fungal species/isolates (Table 3a) were cryopreserved and 1/1000 diluted in medium just prior to use. A standard inoculum of 200 μl containing 10^3 colony-forming unit (cfu) was then added to each well. A positive control (100% growth=fungal culture without antifungal) and a negative control (0% growth=RPMI-MOPS medium) were included on each plate.

Trichophyton rubrum = assay: Antifungal activity in vitro, resazurin growth inhibition screen: Trichophyton rubrum; conditions: Trichophyton rubrum B68183
Experimental: as §1

Sporothrix schenkii = assay: Antifungal activity in vitro, resazurin growth inhibition screen: Sporothrix schenkii; conditions: Sporothrix schenkii B62482
Experimental: as §1

Cryptococcus neoformans = assay: Antifungal activity in vitro, resazurin growth inhibition screen: Cryptococcus neoformans; conditions: Cryptococcus neoformans B66663
Experimental: as §1

Aspergillus fumigatus = assay: Antifungal activity in vitro, resazurin growth inhibition screen: Aspergillus fumigatus; conditions: Aspergillus fumigatus B42928
Experimental: as §1

Candida parapsilosis = assay: Antifungal activity in vitro, resazurin growth inhibition screen: Candida parapsilosis; conditions: Candida parapsilosis B66126
Experimental: as §1

[1] = test system: Trichophyton mentagrophytes; assay: Antifungal activity in vitro, resazurin growth inhibition screen: Trichophyton mentagrophytes; conditions: Trichophyton mentagrophytes B70554
Experimental: as §1

In the case of `Br.COc1cccc2c1CNC(c1ccc3c(c1)OCO3)c1cccn1-2` (stereo not shown) [Compound 8, 4-(1,3-benzodioxol-5-yl)-5,6-dihydro-7-methoxy-4H-pyrrolo[1,2-a][1,4]benzo-diazepine .HBr], the “Inf. B pIC50” value (Microsporum canis) is reported as 4.66, the “Inf. C pIC50” value (Trichophyton rubrum) is reported as 5.22 and the “Inf. A pIC50” value (Sporothrix schenkii) is reported as under 4.19. The “Inf. F pIC50” value (Cryptococcus neoformans) was under 4.19, the “Inf. E pIC50” value (Aspergillus fumigatus) was under 4.19 and the “Inf. D pIC50” value (Candida parapsilosis) was under 4.19. For the same compound, the “Inf. G pIC50” value [1] was under 4.19.

`Clc1cccc2c1CN=C(c1ccc3c(c1)OCO3)c1cccn1-2` [Compound 10, 4-(1,3-benzodioxol-5-yl)-7-chloro-6H-pyrrolo[1,2-a][1,4]benzo-diazepine] was tested, and the “Inf. B pIC50” value (Microsporum canis) was 5.00, the “Inf. C pIC50” value (Trichophyton rubrum) was 5.70 and the “Inf. A pIC50” value (Sporothrix schenkii) was under 4.19. The “Inf. F pIC50” value (Cryptococcus neoformans) was 4.48, the “Inf. E pIC50” value (Aspergillus fumigatus) was under 4.19 and the “Inf. D pIC50” value (Candida parapsilosis) was under 4.19. For the same compound, the “Inf. G pIC50” value [1] was 5.30.

`Br.COc1cc2c(cc1C1NCc3c(Cl)cccc3-n3cccc31)CCCC2` (stereo not shown) [Compound 15, 7-chloro-5,6-dihydro-4-(5,6,7,8-tetrahydro-3-methoxy-2-naphthalenyl)-4H-pyrrolo-[1,2-a][1,4]benzodiazepine .HBr] was tested, and the “Inf. B pIC50” value (Microsporum canis) was under 4.19, the “Inf. C pIC50” value (Trichophyton rubrum) was 5.40 and the “Inf. A pIC50” value (Sporothrix schenkii) was under 4.19. The “Inf. F pIC50” value (Cryptococcus neoformans) was under 4.19, the “Inf. E pIC50” value (Aspergillus fumigatus) was under 4.19 and the “Inf. D pIC50” value (Candida parapsilosis) was under 4.19. The “Inf. G pIC50” value [1] was under 4.19.

With `Cl.Clc1ccc(Cl)c2c1CNC(c1ccc3c(c1)CCC3)c1cccn1-2` (stereo not shown) [Compound 16, 7,10-dichloro-4-(2,3-dihydro-1H-inden-5-yl)-5,6-dihydro-4H-pyrrolo[1,2-a][1,4]-benzodiazepine .HCl] the “Inf. B pIC50” value (Microsporum canis) was 5.00, the “Inf. C pIC50” value (Trichophyton rubrum) was 5.40 and the “Inf. A pIC50” value (Sporothrix schenkii) was under 4.19. For the same compound, the “Inf. F pIC50” value (Cryptococcus neoformans) was under 4.19, the “Inf. E pIC50” value (Aspergillus fumigatus) was under 4.19 and the “Inf. D pIC50” value (Candida parapsilosis) was under 4.19. For the same compound, the “Inf. G pIC50” value [1] was 4.52.

With `Cl.Clc1cc(Cl)c2c(c1)CNC(c1ccc3c(c1)CCC3)c1cccn1-2` (stereo not shown) [Compound 17, 8,10-dichloro-4-(2,3-dihydro-1H-inden-5-yl)-5,6-dihydro-4H-pyrrolo[1,2-a][1,4]-benzodiazepine .HCl] the “Inf. B pIC50” value (Microsporum canis) was under 4.19, the “Inf. C pIC50” value (Trichophyton rubrum) was 5.70 and the “Inf. A pIC50” value (Sporothrix schenkii) was under 4.19. The “Inf. F pIC50” value (Cryptococcus neoformans) was under 4.19, the “Inf. E pIC50” value (Aspergillus fumigatus) was 5.46 and the “Inf. D pIC50” value (Candida parapsilosis) was under 4.19. The “Inf. G pIC50” value [1] was 4.71.

For `Cl.Clc1ccc2c(c1Cl)CNC(c1ccc3c(c1)CCC3)c1cccn1-2` (stereo not shown) [Compound 18, 7,8-dichloro-4-(2,3-dihydro-1H-inden-5-yl)-5,6-dihydro-4H-pyrrolo[1,2-a][1,4]-benzodiazepine .HCl], the “Inf. B pIC50” value (Microsporum canis) was 4.62, the “Inf. C pIC50” value (Trichophyton rubrum) was 5.70 and the “Inf. A pIC50” value (Sporothrix schenkii) was under 4.19. The “Inf. F pIC50” value (Cryptococcus neoformans) was under 4.19, the “Inf. E pIC50” value (Aspergillus fumigatus) was 4.67 and the “Inf. D pIC50” value (Candida parapsilosis) was under 4.19. For the same compound, the “Inf. G pIC50” value [1] was 5.26.

For `Cl.Clc1cc(Cl)c2c(c1)-n1cccc1C(c1ccc3c(c1)CCC3)NC2` (stereo not shown) [Compound 19, 7,9-dichloro-4-(2,3-dihydro-1H-inden-5-yl)-5,6-dihydro-4H-pyrrolo[1,2-a][1,4]-benzodiazepine .HCl], the “Inf. B pIC50” value (Microsporum canis) was 5.40, the “Inf. C pIC50” value (Trichophyton rubrum) was 6.00 and the “Inf. A pIC50” value (Sporothrix schenkii) was under 4.19. The “Inf. F pIC50” value (Cryptococcus neoformans) was 5.70, the “Inf. E pIC50” value (Aspergillus fumigatus) was 4.96 and the “Inf. D pIC50” value (Candida parapsilosis) was under 4.19. The “Inf. G pIC50” value [1] was 5.63.

In the case of `Cl.Clc1cccc2c1CNC(c1ccc3c(c1)CCO3)c1cccn1-2` (stereo not shown) [Compound 26, 7-chloro-4-(2,3-dihydro-5-benzofuranyl)-5,6-dihydro-4H-pyrrolo[1,2-a][1,4]benzo-diazepine .HCl], the “Inf. B pIC50” value (Microsporum canis) is reported as 6.00, the “Inf. C pIC50” value (Trichophyton rubrum) is reported as 6.25 and the “Inf. A pIC50” value (Sporothrix schenkii) is reported as under 4.19. The “Inf. F pIC50” value (Cryptococcus neoformans) was under 4.19, the “Inf. E pIC50” value (Aspergillus fumigatus) was 4.85 and the “Inf. D pIC50” value (Candida parapsilosis) was 4.25. For the same compound, the “Inf. G pIC50” value [1] was 5.70.

`Cl.Clc1cccc2c1CNC(c1ccc3c(c1)OCC3)c1cccn1-2` (stereo not shown) [Compound 27, 7-chloro-4-(2,3-dihydro-6-benzofuranyl)-5,6-dihydro-4H-pyrrolo[1,2-a][1,4]benzo-diazepine .HCl] was tested, and the “Inf. B pIC50” value (Microsporum canis) was 5.15, the “Inf. C pIC50” value (Trichophyton rubrum) was 6.32 and the “Inf. A pIC50” value (Sporothrix schenkii) was under 4.19. For the same compound, the “Inf. F pIC50” value (Cryptococcus neoformans) was under 4.19, the “Inf. E pIC50” value (Aspergillus fumigatus) was under 4.19 and the “Inf. D pIC50” value (Candida parapsilosis) was under 4.19. For the same compound, the “Inf. G pIC50” value [1] was 4.96.

For `Cl.Fc1cccc2c1CNC(c1ccc3c(c1)CCOC3)c1cccn1-2` (stereo not shown) [Compound 29, 4-(3,4-dihydro-1H-2-benzopyran-6-yl)-7-fluoro-5,6-dihydro-4H-pyrrolo[1,2-a]-[1,4]benzodiazepine .HCl], the “Inf. B pIC50” value (Microsporum canis) was under 4.19, the “Inf. C pIC50” value (Trichophyton rubrum) was 4.44 and the “Inf. A pIC50” value (Sporothrix schenkii) was under 4.19. For the same compound, the “Inf. F pIC50” value (Cryptococcus neoformans) was under 4.19, the “Inf. E pIC50” value (Aspergillus fumigatus) was under 4.19 and the “Inf. D pIC50” value (Candida parapsilosis) was under 4.19. For the same compound, the “Inf. G pIC50” value [1] was under 4.19.

In the case of `Cl.Clc1ccc2c(c1Cl)CNC(c1ccc3c(c1)CCO3)c1cccn1-2` (stereo not shown) [Compound 30, 7,8-dichloro-4-(2,3-dihydro-5-benzofuranyl)-5,6-dihydro-4H-pyrrolo[1,2-a][1,4]-benzodiazepine .HCl], the “Inf. B pIC50” value (Microsporum canis) is reported as 6.00, the “Inf. C pIC50” value (Trichophyton rubrum) is reported as 5.22 and the “Inf. A pIC50” value (Sporothrix schenkii) is reported as under 4.19. The “Inf. F pIC50” value (Cryptococcus neoformans) was 5.22, the “Inf. E pIC50” value (Aspergillus fumigatus) was under 4.19 and the “Inf. D pIC50” value (Candida parapsilosis) was under 4.19. The “Inf. G pIC50” value [1] was 5.00.

`Cl.Clc1cc(Cl)c2c(c1)-n1cccc1C(c1ccc3c(c1)CCO3)NC2` (stereo not shown) [Compound 31, 7,9-dichloro-4-(2,3-dihydro-5-benzofuranyl)-5,6-dihydro-4H-pyrrolo[1,2-a][1,4]-benzodiazepine .HCl] was tested, and the “Inf. B pIC50” value (Microsporum canis) was 5.52, the “Inf. C pIC50” value (Trichophyton rubrum) was 6.00 and the “Inf. A pIC50” value (Sporothrix schenkii) was under 4.19. For the same compound, the “Inf. F pIC50” value (Cryptococcus neoformans) was under 4.19, the “Inf. E pIC50” value (Aspergillus fumigatus) was under 4.19 and the “Inf. D pIC50” value (Candida parapsilosis) was under 4.19. For the same compound, the “Inf. G pIC50” value [1] was 5.80.

For `Cl.Clc1ccc(Cl)c2c1CNC(c1ccc3c(c1)CCO3)c1cccn1-2` (stereo not shown) [Compound 32, 7,10-dichloro-4-(2,3-dihydro-5-benzofuranyl)-5,6-dihydro-4H-pyrrolo[1,2-a][1,4]-benzodiazepine .HCl], the “Inf. B pIC50” value (Microsporum canis) was 5.52, the “Inf. C pIC50” value (Trichophyton rubrum) was 5.22 and the “Inf. A pIC50” value (Sporothrix schenkii) was under 4.19. The “Inf. F pIC50” value (Cryptococcus neoformans) was 4.64, the “Inf. E pIC50” value (Aspergillus fumigatus) was under 4.19 and the “Inf. D pIC50” value (Candida parapsilosis) was under 4.19. For the same compound, the “Inf. G pIC50” value [1] was 4.92.

In the case of `Cl.Clc1ccc(Cl)c2c1CNC(c1ccc3c(c1)OCC3)c1cccn1-2` (stereo not shown) [Compound 33, 7,10-dichloro-4-(2,3-dihydro-6-benzofuranyl)-5,6-dihydro-4H-pyrrolo[1,2-a][1,4]-benzodiazepine .HCl], the “Inf. B pIC50” value (Microsporum canis) is reported as 5.52, the “Inf. C pIC50” value (Trichophyton rubrum) is reported as 5.15 and the “Inf. A pIC50” value (Sporothrix schenkii) is reported as under 4.19. For the same compound, the “Inf. F pIC50” value (Cryptococcus neoformans) was under 4.19, the “Inf. E pIC50” value (Aspergillus fumigatus) was under 4.19 and the “Inf. D pIC50” value (Candida parapsilosis) was under 4.19. The “Inf. G pIC50” value [1] was under 4.19.

`Cl.Clc1cc(Cl)c2c(c1)CNC(c1ccc3c(c1)CCO3)c1cccn1-2` (stereo not shown) [Compound 34, 8,10-dichloro-4-(2,3-dihydro-5-benzofuranyl)-5,6-dihydro-4H-pyrrolo[1,2-a][1,4]-benzodiazepine .HCl] was tested, and the “Inf. B pIC50” value (Microsporum canis) was 5.70, the “Inf. C pIC50” value (Trichophyton rubrum) was 5.70 and the “Inf. A pIC50” value (Sporothrix schenkii) was under 4.19. For the same compound, the “Inf. F pIC50” value (Cryptococcus neoformans) was 5.52, the “Inf. E pIC50” value (Aspergillus fumigatus) was under 4.19 and the “Inf. D pIC50” value (Candida parapsilosis) was under 4.19. For the same compound, the “Inf. G pIC50” value [1] was 4.96.

`Fc1cccc2c1CN=C(c1ccc3c(c1)CCCO3)c1cccn1-2` [Compound 40, 4-(3,4-dihydro-2H-1-benzopyran-6-yl)-7-fluoro-6H-pyrrolo[1,2-a][1,4]benzo-diazepine] was tested, and the “Inf. B pIC50” value (Microsporum canis) was 4.49, the “Inf. C pIC50” value (Trichophyton rubrum) was under 4.19 and the “Inf. A pIC50” value (Sporothrix schenkii) was under 4.19. For the same compound, the “Inf. F pIC50” value (Cryptococcus neoformans) was 5.87, the “Inf. E pIC50” value (Aspergillus fumigatus) was under 4.19 and the “Inf. D pIC50” value (Candida parapsilosis) was 5.56. The “Inf. G pIC50” value [1] was under 4.19.
